From patent EP4177246A1, “FUSED OXAZEPINES AS INHIBITORS OF PEROXIREDOXINS” (Centro Atlántico del Medicamento, SA, priority 2021, dated 2023)

How the values were obtained:
K562 = experiment: MTT cell viability assay, K562 cells; type: cell-based; details: Homo sapiens, 48 h drug exposure
Summary of the method: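 Human CML-derived K562 cells seeded at 1000-5000/well with 10% FBS, treated after 24 h with compound (10 to 0,01 µM) or 0.05% DMSO vehicle for 48 h. MTT (0.3 mg/ml) added 2-4 h at 37 °C, formazan dissolved in DMSO, OD 595 nm; IC50 from non-linear regression, 3 replicates.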

MCF-7 = experiment: MTT cell viability assay, MCF-7 cells; type: cell-based; details: Homo sapiens, MCF7, 48 h drug exposure
Procedure: (§1) Cell viability was assayed by measuring the mitochondrial reduction of the tetrazolium salt 3-(4,5-methyltiazol-2yl)-2,5diphenyl-tetrazolium bromide] (MTT) (Applichen; A2231,0010) [Mosmann T. J Immunol Methods. 1983 16;65(1-2):55-63 (ref. 36); Chuan Y-C et al 2010. Oncogene. 29 (10), 1531-1542 (ref. 37)]. Cells were seeded in 96-well plates in medium (either RPMI, DMEM or McCoys depending on the recommendations from the ATCC) supplemented with 10% FBS (Lonza Cat. N°: 14-502F), 2mM L-Glut (Lonza Cat. N°: BE17-605E) and 100U/ml PEST (Lonza Cat. N°: DE17-605E) at a cell density of 1000-5000 cells/well (96 well plate). Cells were seeded at a density according to their exponential growth phase (normally 1000 to 5000/well). The cells were cultured at 37 °C in the dark in air containing 5% CO2. After 24h either vehicle (0.05% DMSO) or drug were added to culture medium at the indicated concentrations (10 to 0,01microM). After another 48 h, MTT (0.3 mg/ml) was added to cells, followed by incubation for 2-4h at 37 °C in the dark. The medium was then removed and the precipitated formazan was solubilized by the addition of DMSO (200 µL).
(§2) The optical density was measured at 595 nm with the iMark Microplate Reader (BioRad, USA). Data was expressed as percent growth above the level in controls and the results in figures were plotted as means ± SEM of each test point from 3 replicates.
(§3) Statistical analysis. The concentration of drug that provokes 50% reduction of cell viability (IC50) was determined by using non-linear regression analysis and data were fitted to a log concentration vs normalized response curve in GraphPad software v5 (San Diego, CA).

PANC-1 = experiment: MTT cell viability assay, PANC-1 cells; type: cell-based; details: Homo sapiens, 48 h drug exposure
Procedure: PANC-1 [American Type Culture Collection (ATCC) reference number CRL-1469]. This a human cancer cell line derived from the pancreas of a person.
as §1, §2, §3

PRDX1 = molecular target: T1, PRDX1 (Homo sapiens, UniProt Q06830); experiment: Western blot of monomeric/dimeric and oxidized forms of PRDX1 in treated cells; type: cell-based; details: 1 µM, MDA-MB-231 cells
T1 construct: treatment of untreated MDA-MB-231 cell lysates with a resin coupled to compound 24; endogenous in cells; host or cells: MDA-MB-231 (ATCC HTB-26)
T1 sequence (Q06830 1-199): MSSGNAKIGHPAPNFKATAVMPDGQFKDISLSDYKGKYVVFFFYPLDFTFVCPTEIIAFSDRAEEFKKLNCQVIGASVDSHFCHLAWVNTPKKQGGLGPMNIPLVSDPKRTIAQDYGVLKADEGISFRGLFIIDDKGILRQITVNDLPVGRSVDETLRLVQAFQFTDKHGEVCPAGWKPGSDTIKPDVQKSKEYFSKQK
Procedure: To that end, compound 24 1 µM was added to MDA-MB-231 cells and followed by Western Blot analysis. β-actin was used as control.
Non-reducing and reducing conditions used are those commonly used to assess the status of PRDX1 (see ref. 34 and 35) ref. 35

HEL 92.1.7 = experiment: MTT cell viability assay, HEL cells; type: cell-based; details: Homo sapiens, 48 h drug exposure
Summary of the method: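 Human erythroleukemia HEL 92.1.7 cells, 1000-5000 cells/well in 10% FBS medium, treated 24 h after seeding with compound (10 to 0,01microM) or 0.05% DMSO for 48 h. MTT (0.3 mg/ml) 2-4h at 37 °C, OD 595 nm; IC50 by non-linear regression of log concentration vs normalized response, 3 replicates.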

MDA-MB-231 = experiment: MTT cell viability assay, MDA-MB-231 cells; type: cell-based, human; details: Homo sapiens, 48 h drug exposure
Summary of the method: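 MDA-MB-231 cells seeded in FBS-supplemented medium, treated after 24 h with compound (10 to 0,01 µM; vehicle 0.05% DMSO) for 48 h at 37 °C. MTT (0.3 mg/ml) added for 2-4 h, formazan dissolved in DMSO, OD read at 595 nm. IC50 from non-linear regression of log concentration vs normalized response.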

DU-145 = experiment: MTT cell viability assay, DU-145 cells; type: cell-based; details: Homo sapiens, 48 h drug exposure
Procedure: DU-145 [American Type Culture Collection (ATCC) reference number HTB-81]. This a human prostate cancer cell line derived from a metastatic site (brain) of a person.
as §1, §2, §3

IC50 (K562): 0.1 µM
IC50 (MCF-7): 1.72 µM
IC50 (PANC-1): 0.32 µM
IC50 (MDA-MB-231): 0.09 µM
IC50 (DU-145): 3.19 µM
Compound: O=C1C2=C(C(=O)c3c(O)ccc(O)c31)N(c1cccnc1)Cc1ccccc1O2 [Compound 24, 7,10-dihydroxy-12-(pyridin-3-yl)-12,13-dihydrobenzo[f]naphtho[2,3-b][1,4]oxazepine-6,11-dione]
conversion of PRDX1 monomeric form into dimeric form (PRDX1; non-reducing conditions): a rapid conversion of PRDX1 from its basal active monomeric form, into its inactive dimeric form
levels of hyperoxidized PRDX1 (SO2/3-Prdx) (PRDX1; reducing conditions): a significant increase in the levels of inactive hyperoxidized 2-cystiene PRDX1
IC50 (HEL 92.1.7): 0.09 µM
